# Laboratory results taken from patent US10286022B2, “Medicinal composition of extract of seed of emblica officinalis and method of preparing the same” (priority 2013, dated 2019).
# Tests used:
# [1] = test system: Triton WR 1339 induced dyslipidemia in Albino rats (Sprague Dawley strain); assay: Hypolipidemic activity of product 3 compared with amla seed powder, Triton WR 1339 model (Example 26); assay type: in vivo, rat
# Method: Twenty eight male Albino rats (Sprague Dawley strain) weighing approximately 250-300 gm were selected for the study. The animals were maintained at temperature of 24±2° C., 65% relative humidity and 12 hr light/dark cycle. The rats were acclimatized for two weeks and during this period they had access to standard pellet diet and water ad libitum. After two weeks of acclimatization, all the rats were fasted overnight before injecting Triton WR 1339 (Tyloxapol) and administration of test extracts/standard. The animals were divided into seven groups. Following treatment was given to overnight fasted rats: • Group I: Normal control (vehicle only) • Group II: Triton WR 1339 (300 mg/kg, intraperitoneal) • Group III: Triton WR 1339 (300 mg/kg, intraperitoneal) followed by administering product of amla seed extract (product 3) on the same day of triton administration (0.5 mg/kg, per oral) • Group IV: Triton WR 1339 (300 mg/kg, intraperitoneal) followed by product 2 (50% methanol fraction+80% methanol fraction+water fraction) of amla seed extract on the same day that Triton was administered (0.5 mg/kg, per oral) • Group V: Triton WR 1339 (300 mg/kg, intraperitoneal) followed by product 1 (Hexane fraction) of amla seed extract on the same day that Triton was administered (0.5 mg/kg, per oral) • Group VI: Triton WR 1339 (300 mg/kg, intraperitoneal) followed by powder of dried amla seed prepared as per Example 7 (0.5 mg/kg, per oral). The powder of dried amla seed was administered on the same day as triton was administered. • Group VII: Triton WR 1339 (300 mg/kg, intraperitoneal) followed by atorvastatin administration (10 mg/kg, per oral), on the same day.
# The animals were deprived of food for next 24 hours but had free access to water ad libitum. After 24 hours of drug treatment, 2 ml of blood sample was collected from the retro orbital plexus. The blood was allowed to clot and then centrifuged at 3000 rpm for 10 min and the serum was carefully drawn and collected into separate tubes. The serum was analyzed for total cholesterol, triglycerides, high density lipoproteins (HDL), low density lipoproteins (LDL) and very low density lipoproteins (VLDL) levels using auto-analyzer.
# cholesterol fed rabbits = assay: Hypolipidemic activity in cholesterol fed rabbits (Example 23); assay type: in vivo, rabbit
# Method: The amla seed extract as prepared in example 1 was evaluated for hypolipidemic activity in experimental rabbits. Male NZ white rabbits weighing 1.5-2.0 kg were used for the experiment. They were housed in a temperature-controlled room (25±2° C.) in clean stainless steel cages with ‘12 h light and 12 h dark’ cycles and fed with normal pellet diet and water ad libitum.
# After the acclimatization period of 10 days, blood samples were collected from marginal ear vein of all the rabbits. The blood was allowed to clot and then centrifuged at 3000 rpm for 10 min and the serum was carefully drawn and collected into separate tubes. The serum was analyzed for total cholesterol, triglycerides, high density lipoproteins (HDL), low density lipoproteins (LDL) and very low density lipoproteins (VLDL) levels using auto-analyzer.
# After taking baseline lipid profile the animals were divided into four groups having six animals in each group. Following treatment was given to the animals for the three months:
# Blood samples were collected from all the rabbits after 3 months of treatment and serum was analyzed for lipid profile. After blood collection the animals were sacrificed after injecting pentobarbitone and aorta was dissected out, washed with saline and preserved in 10% formalin for histopathology. The sections were cut using microtome and stained with heamatoxylin & eosin dye and mounted on glass slides. The slides were observed under microscope and aortic intima media thickness (IMT) was measured by histomorphometry.
# [2] = 24 h after Triton i.p. + 10 mg/kg p.o.
# [3] = after 3 months cholesterol 100 mg/kg + 10 mg/kg
smiles,measurement,setting,value
CC(C)c1c(C(=O)Nc2ccccc2)c(-c2ccccc2)c(-c2ccc(F)cc2)n1CC[C@@H](O)C[C@@H](O)CC(=O)O [Atorvastatin],HDL After,[1]; [2],38.46 mg/dL
same,LDL After,[1]; [2],44.30 mg/dL
same,TC After,[1]; [2],121.21 mg/dL
same,TG After,[1]; [2],192.25 mg/dL
same,VLDL After,[1]; [2],44.30 mg/dL
same,HDL Before,"[1]; baseline, 10 mg/kg p.o. group",35.54 mg/dL
same,LDL Before,"[1]; baseline, 10 mg/kg p.o. group",58.22 mg/dL
same,TC Before,"[1]; baseline, 10 mg/kg p.o. group",103.47 mg/dL
same,TG Before,"[1]; baseline, 10 mg/kg p.o. group",48.54 mg/dL
same,VLDL Before,"[1]; baseline, 10 mg/kg p.o. group",58.22 mg/dL
same,effect on total cholesterol and triglyceride level,"cholesterol fed rabbits; 10 mg/kg, 3 months, compared to untreated control group",decreased the total cholesterol and triglyceride level significantly
same,HDL After,cholesterol fed rabbits; [3],20.37 mg/dL
same,LDL After,cholesterol fed rabbits; [3],82.8 mg/dL
same,TC After,cholesterol fed rabbits; [3],118.9 mg/dL
same,TG After,cholesterol fed rabbits; [3],78.67 mg/dL
same,VLDL After,cholesterol fed rabbits; [3],15.73 mg/dL
same,Aortic intima media thickness,"cholesterol fed rabbits; after 3 months cholesterol 100 mg/kg + 10 mg/kg, histomorphometry",112.36 μm
same,HDL Before,"cholesterol fed rabbits; baseline, 10 mg/kg group",14.15 mg/dL
same,LDL Before,"cholesterol fed rabbits; baseline, 10 mg/kg group",27.88 mg/dL
same,TC Before,"cholesterol fed rabbits; baseline, 10 mg/kg group",53.69 mg/dL
same,TG Before,"cholesterol fed rabbits; baseline, 10 mg/kg group",58.28 mg/dL
same,VLDL Before,"cholesterol fed rabbits; baseline, 10 mg/kg group",11.66 mg/dL
